From patent US6225350A, “Butyrate prodrugs derived from lactic acid” (Vertex Pharmaceuticals, Inc., priority 1999, dated 2001)
Blank lines part the entries; values can stand above or below the molecule they belong to.

Legend:
[1] = in vivo; cited from earlier work
y globin chain = test: Efficacy study in anemic rhesus monkeys: %y globin chain by HPLC; type: in vivo
[2] = rhesus monkey, in vivo
Method: The efficacy of compound IIIc administered in conjunction with hydroxyurea was tested on six anemic rhesus monkeys divided into three groups of two each. Each group was studied in two phases, as shown below. Fetal hemoglobin cells (F cells), Hemoglobin F level in total Hemoglobin (%Hb F) and %y globin chain levels were monitored before and after each of the two phases. %F cells were measured according to the protocol described in Betke et al, Blut., 4, pp. 241-9 (1958). %Hb F and %y globin chain synthesis were measured using High Performance Liquid Chromatography (HPLC) according to the protocol described in Huisman, J. Chromagtogr., 418, pp. 277 (1987).

[3] = tested on: Fetal hemoglobin cells (F cells); test: Efficacy study in anemic rhesus monkeys: %F cells; type: in vivo; conditions: for %F cell count: 8-10% before Phase I
Hemoglobin F = test: Efficacy study in anemic rhesus monkeys: %Hb F by HPLC; type: in vivo
Erythroleukemic Cells = conditions: cited from earlier work
leukemia = conditions: cited from earlier work
[4] = tested on: colorectal carcinoma cell lines; conditions: cited from earlier work
[5] = tested on: retinoblastoma cell lines; conditions: Human Y-79 retinoblastoma cell line; cited from earlier work
pancreatic cancer cells = conditions: cited from earlier work
[6] = Group I (hydroxyurea in Phase I, hydroxyurea + compound IIIc in Phase II)

Structure (SMILES): CCCC(=O)OCOC(=O)C(C)(C)C [AN-9]
metabolites / toxic effects [1]: elicit metabolites that may produce formaldehyde in vivo, leading to toxic effects in patients

Structure (SMILES): NC(=O)NO [Hydroxyurea]
%y-globin chain level, change (y globin chain; [6]): measurable increase
levels of ALT prior to or during the phases [2]: no detectable difference
levels of the triglycerides prior to or during the phases [2]: no detectable difference
%F cell count ([3]; Animal 1, group I, end of Phase I (hydroxyurea 50 mg/kg/day, 5 weeks)): 25%
%Hb F, change (Hemoglobin F; [6]): measurable increase

levels of the triglycerides prior to or during the phases [2]: no detectable difference
Structure (SMILES): CCCC(=O)O[C@@H](C)C(=O)OCC [Compound IIIc]
Y-globin chain level, change (y globin chain; Groups II and III): no measurable change
levels of ALT prior to or during the phases [2]: no detectable difference
%F cell count ([3]; Animal 2, group II, end of Phase I (compound IIIc 1 g/kg/day, 5 weeks)): 15%
%F cell count ([3]; Animal 2, group II, end of Phase II (compound IIIc 1 g/kg/TID, 5 weeks)): 22%
%F cells, change ([3]; Groups II and III): small but significant increase
HBf level, change (Hemoglobin F; Groups II and III): no measurable change

Structure (SMILES): CCCC(=O)O [butyric acid]
cell differentiation in vitro (Erythroleukemic Cells): induces cell differentiation
effects in leukemia patients (leukemia): promising effects in leukemia patients

Structure (SMILES): CCCC(=O)[O-].[Na+] [Sodium butyrate]
apoptosis in colorectal carcinoma cell lines [4]: induce apoptosis
apoptosis in retinoblastoma cell lines [5]: induce apoptosis
antigen expression in pancreatic cancer cells (pancreatic cancer cells): modify antigen expression
